Molecular target: T1, small-conductance Ca2+-activated K+ channels (SK channels, subtype 2) (Homo sapiens, UniProt Q9H2S1)
T1 construct: expressed in transfected cells; host or cells: HEK293
Assay: whole-cell patch-clamp of ionic current through SK2 channels in HEK293 cells (SC100)
Format: cell-based
Conditions: concentration that increases the basal current by 100%; HEK293 cells expressing SK2 channels
Outline: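 SC100, the concentration doubling basal current (a 100% increase), was taken from SK2 currents recorded by whole-cell patch-clamp in SK2-expressing HEK293 cells.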

| SC100 | SMILES |
| --- | --- |
| + (+ means >1 uM) | Cc1cc(C)n(-c2cccc(NC3CCC(F)(F)CC3)n2)n1 [Compound 154, N-(4,4-difluorocyclohexyl)-6-(3,5-dimethyl-1H-pyrazol-1-yl)pyridin-2-amine] |
| ++ (++ means 200 nM-1000 nM) | CC(C)C(=O)N1CC(Oc2cc(NC3CCC(F)(F)CC3)nc(-n3ccc(CF)n3)n2)C1 [Compound 290, 1-(3-((6-((4,4-difluorocyclohexyl)amino)-2-(3-(fluoromethyl)-1H-pyrazol-1-yl)pyrimidin-4-yl)oxy)azetidin-1-yl)-2-methylpropan-1-one] |
| ++ (++ means 200 nM-1000 nM) | CC(C)(C)C(=O)N1CC(Oc2cc(NC3CCC(F)(F)CC3)nc(-c3nc(C(F)F)cs3)n2)C1 [Compound 329, 1-(3-((6-((4,4-difluorocyclohexyl)amino)-2-(4-(difluoromethyl)thiazol-2-yl)pyrimidin-4-yl)oxy)azetidin-1-yl)-2,2-dimethylpropan-1-one] |
| +++ (+++ means <200 nM) | CC(C)(C)C(=O)N1CC(Oc2cc(NC3CCC(F)(F)CC3)nc(-c3nc(CF)cs3)n2)C1 [Compound 316, 1-(3-((6-((4,4-difluorocyclohexyl)amino)-2-(4-(fluoromethyl)thiazol-2-yl)pyrimidin-4-yl)oxy)azetidin-1-yl)-2,2-dimethylpropan-1-one] |
| + (+ means >1 uM) | CC(=O)N1CCN(c2cc(NC3CCC(F)(F)C3)nc(-n3nc(C)cc3C)n2)CC1 (stereo not shown) [Compound 130, 1-(4-(6-((3,3-difluorocyclopentyl)amino)-2-(3,5-dimethyl-1H-pyrazol-1-yl)pyrimidin-4-yl)piperazin-1-yl)ethan-1-one] |

Same assay, conditions: whole-cell patch-clamp, HEK293 cells expressing SK2 channels; concentration that increases the basal current by 100%

| SC100 (μM) | SMILES |
| --- | --- |
| ++ (++ means 200 nM-1000 nM) | Cc1csc(-c2nc(NC3CCC(F)(F)CC3)cc(N3CC4(COC4)C3)n2)n1 [NSSy5664] |
| + (+ means >1 uM) | COC(C)c1cc(N(C)C2CCC(F)(F)CC2)nc(-n2ccc(C(F)(F)F)n2)n1 (stereo not shown) [IN11053-073-P1, N-(4,4-difluorocyclohexyl)-6-(1-methoxyethyl)-N-methyl-2-(3-(trifluoromethyl)-1H-pyrazol-1-yl)pyrimidin-4-amine] |
| ++ (++ means 200 nM-1000 nM) | CC(=O)NCc1cc(NC2CCC(F)(F)CC2)nc(-n2cc(C)c(CF)n2)c1 [NSSy5622, N-((2-((4,4-difluorocyclohexyl)amino)-6-(3-(fluoromethyl)-4-methyl-1H-pyrazol-1-yl)pyridin-4-yl)methyl)acetamide] |
| + (+ means >1 uM) | Cc1ccn(-c2nc(N3CCCCC3)cc(N3CCOC(CO)C3)n2)n1 (stereo not shown) [IN10882-072-P1, (4-(2-(3-methyl-1H-pyrazol-1-yl)-6-(piperidin-1-yl)pyrimidin-4-yl)morpholin-2-yl) methanol] |
| +++ (+++ means <200 nM) | COCC1CN(c2cc(NC3CCC(F)(F)CC3)nc(-c3nc(C)cs3)n2)CCN1C (stereo not shown) [IN10864-060-P1] |
| + (+ means >1 uM) | Cc1ccc(-c2nc(NC3CCC(F)(F)CC3)cc(N3CCOCC3)n2)[nH]1 [IN11196-081-P1, N-(4,4-difluorocyclohexyl)-2-(5-methyl-1H-pyrrol-2-yl)-6-morpholino pyrimidin-4-amine] |
| + (+ means >1 uM) | COC(C)c1cc(NC2CCCCC2(F)F)nc(-c2nc(C)cs2)n1 (stereo not shown) [IN11140-099-P1, N-(2,2-difluorocyclohexyl)-6-(1-methoxyethyl)-2-(4-methylthiazol-2-yl)pyrimidin-4-amine] |
| ++ (++ means 200 nM-1000 nM) | CC(=O)N1CCC(Oc2cc(NC3CCC(F)(F)CC3)nc(-c3nc(C)cs3)n2)CC1 [NSSy6258] |
| ++ (++ means 200 nM-1000 nM) | Cc1csc(-c2nc(NC3CCC(F)(F)CC3)cc(N3CCCC(O)C3)n2)n1 (stereo not shown) [IN10881-023-P2] |
| ++ (++ means 200 nM-1000 nM) | Cc1csc(-c2cc(C(O)Cc3nnco3)cc(NC3CCC(F)(F)CC3)n2)n1 (stereo not shown) [NSSy6782, 1-(2-((4,4-difluorocyclohexyl)amino)-6-(4-methylthiazol-2-yl)pyridin-4-yl)-2-(1,3,4-oxadiazol-2-yl)ethan-1-ol] |
| +++ (+++ means <200 nM) | Cc1ccn(-c2cc(COc3ncccc3C(C)(C)O)cc(NC3CCC(F)(F)CC3)n2)n1 [IN11039-069-P1] |

Source: patent US10774064B2 (Cadent Therapeutics, Inc., priority 2016, dated 2020)
